According to patent US10800725B2, “Arylpropionyl-triketone antibacterial agents” (priority 2010, dated 2020):
Converted amounts (≈) assume the structure as drawn.

What was measured:
[1] = molecular target: M. tuberculosis RNA polymerase core enzyme + σA (Mycobacterium tuberculosis (strain ATCC 25618 / H37Rv), UniProt P9WGY7+P9WGY9); experiment: Fluorescence-detected RNA polymerase assay, M. tuberculosis RNAP; assay type: biochemical
Experimental: (§1) Fluorescence-detected RNA polymerase assays with E. coli RNA polymerase were performed by a modification of the procedure of Kuhlman et al., 2004 [Kuhlman, P., Duff, H. & Galant, A. (2004) A fluorescence-based assay for multisubunit DNA-dependent RNA polymerases. Anal. Biochem. 324, 183-190]. Reaction mixtures contained (20 μl): 0-100 nM test compound, 75 nM E. coli RNA polymerase σ^70 holoenzyme, 20 nM 384 bp DNA fragment containing the bacteriophage T4 N25 promoter, 100 μM ATP, 100 μM GTP, 100 μM UTP, 100 μM CTP, 50 mM Tris-HCl, pH 8.0, 100 mM KCl, 10 mM MgCl2, 1 mM DTT, 10 μg/ml bovine serum albumin, and 5.5% glycerol. Reaction components other than DNA and NTPs were pre-incubated for 10 min at 37° C. Reactions were carried out by addition of DNA and incubation for 5 min at 37° C., followed by addition of NTPs and incubation for 60 min at 37° C. DNA was removed by addition of 1 μl 5 mM CaCl2 and 2 U DNaseI (Ambion, Inc.), followed by incubation for 90 min at 37° C. RNA was quantified by addition of 100 μl RiboGreen RNA Quantitation Reagent (Invitrogen, Inc.; 1:500 dilution in Tris-HCl, pH 8.0, 1 mM EDTA), followed by incubation for 10 min at 25° C., followed by measurement of fluorescence intensity [excitation wavelength=485 nm and emission wavelength=535 nm; QuantaMaster QM1 spectrofluorometer (PTI, Inc.)]. IC50 is defined as the concentration of inhibitor resulting in 50% inhibition of RNA polymerase activity.
(§2) Fluorescence-detected RNA polymerase assays with M. tuberculosis RNA polymerase were performed as in Example 21.1, using reaction mixtures containing (20 μl): 0-100 nM test compound, 75 nM M. tuberculosis RNA polymerase core enzyme, 300 nM M. tuberculosis σ^A, 20 nM 384 bp DNA fragment containing the bacteriophage T4 N25 promoter, 100 μM ATP, 100 μM GTP, 100 μM UTP, 100 μM CTP, 40 mM Tris-HCl, pH 8.0, 80 mM NaCl, 5 mM MgCl2, 2.5 mM DTT, and 12.7% glycerol. IC50 is defined as the concentration of inhibitor resulting in 50% inhibition of RNA polymerase activity.

[2] = system: Escherichia coli D21f2tolC; experiment: MIC, spiral gradient endpoint assay; settings: read-out: MIC E. coli D21f2tolC
[3] = system: Moraxella catarrhalis ATCC 25238; experiment: MIC, spiral gradient endpoint assay (GC II agar, 5% CO2); settings: ATCC25238, read-out: MIC M. catarrhalis 25238
[4] = system: Mycobacterium tuberculosis H37Rv; experiment: MIC, microplate Alamar Blue assay; settings: read-out: MIC M. tuberculosis H37Rv
[5] = molecular target: E. coli RNA polymerase σ70 holoenzyme (Escherichia coli (strain K12), UniProt P0A8T7+P0A8V2); experiment: Fluorescence-detected RNA polymerase assay, E. coli RNAP; assay type: biochemical
Experimental: as §1

[6] = system: Staphylococcus aureus ATCC 12600; experiment: MIC, spiral gradient endpoint assay; settings: ATCC12600, read-out: MIC S. aureus 12600
[7] = molecular target: S. aureus RNA polymerase core enzyme + σA (Staphylococcus aureus (strain NCTC 8325 / PS 47), UniProt P47768+Q2G0N5); experiment: Fluorescence-detected RNA polymerase assay, S. aureus RNAP; assay type: biochemical
Experimental: as §1
as §2, with “S. aureus” for “M. tuberculosis”

[8] = system: Enterococcus faecalis ATCC 19433; experiment: MIC, spiral gradient endpoint assay; settings: ATCC19433, read-out: MIC E. faecalis 19433
[9] = system: Streptococcus pyogenes ATCC 12344; experiment: MIC, spiral gradient endpoint assay (GC II agar, 5% CO2); settings: ATCC12344, read-out: MIC S. pyogenes 12344
[10] = system: Streptococcus pneumoniae ATCC 49619; experiment: as above; settings: ATCC49619, read-out: MIC S. pneumoniae 49619
[11] = system: Francisella tularensis SCHU4; experiment: microbe, parasite or virus in culture; assay type: cell-based; settings: SCHU4, read-out: MIC F. tularensis SCHU4
[12] = system: Bacillus anthracis Vollum-1b; experiment: microbe, parasite or virus in culture; assay type: cell-based; settings: VOLLUM1B, read-out: MIC B. anthracis Vollum-1b
[13] = system: Staphylococcus aureus BAA-1717 MRSA (USA300); experiment: MIC, spiral gradient endpoint assay; settings: read-out: MIC S. aureus MRSA 1717
[14] = system: Staphylococcus aureus BAA-1707 MRSA (MW2); experiment: MIC, spiral gradient endpoint assay; settings: read-out: MIC S. aureus MRSA 1707
[15] = system: Enterococcus faecium ATCC 19434; experiment: MIC, spiral gradient endpoint assay; settings: ATCC19434, read-out: MIC E. faecium 19434
[16] = system: Staphylococcus aureus ATCC 13709 MSSA; experiment: MIC, spiral gradient endpoint assay; settings: read-out: MIC S. aureus 13709

Row | Structure (SMILES) | IC50 [1] | MIC [2] | MIC [3] | MIC [4] | IC50 [5] | MIC [6] | IC50 [7] | MIC [8] | MIC [9] | MIC [10] | MIC [11] | MIC [12] | MIC [13] | MIC [14] | MIC [15] | MIC [16]
1 | CC(C)CCC1=C(O)C(CCC(C)C)(CCC(C)C)C(=O)C(C(=O)CCc2ccccc2Cl)=C1O [Compound 1, 3,5-dihydroxy-2-(3-(2-chlorophenyl)propanoyl)-4,6,6-triisopentylcyclohexa-2,4-dienone] | 1200 nM | 24 µg/mL (≈ 47.7 µM) | > 40 µg/mL | 50 µg/mL (≈ 99.4 µM) | 2100 nM | 0.6 µg/mL (≈ 1.19 µM) | 5.7 µM | 2 µg/mL (≈ 3.98 µM) | 19 µg/mL (≈ 37.8 µM) | 15 µg/mL (≈ 29.8 µM) | 6.25 µg/mL (≈ 12.4 µM) | 0.049 µg/mL (≈ 0.0974 µM) | – | – | – | –
2 | CC(C)CCC1=C(O)C(CCC(C)C)(CCC(C)C)C(=O)C(C(=O)CCc2cccc(Cl)c2)=C1O [Compound 2, 3,5-dihydroxy-2-(3-(3-chlorophenyl)propanoyl)-4,6,6-triisopentylcyclohexa-2,4-dienone] | 2200 nM | 15 µg/mL (≈ 29.8 µM) | 19 µg/mL (≈ 37.8 µM) | 50 µg/mL (≈ 99.4 µM) | 2500 nM | 0.5 µg/mL (≈ 0.994 µM) | 5.9 µM | 1 µg/mL (≈ 1.99 µM) | 19 µg/mL (≈ 37.8 µM) | 12 µg/mL (≈ 23.9 µM) | > 50 µg/mL | 0.098 µg/mL (≈ 0.195 µM) | – | – | – | –
3 | CC(C)CCC1=C(O)C(CCC(C)C)(CCC(C)C)C(=O)C(C(=O)CCc2ccc(Cl)cc2)=C1O [Compound 3, 3,5-dihydroxy-2-(3-(4-chlorophenyl)propanoyl)-4,6,6-triisopentylcyclohexa-2,4-dienone] | 770 nM | 8 µg/mL (≈ 15.9 µM) | 19 µg/mL (≈ 37.8 µM) | 50 µg/mL (≈ 99.4 µM) | 630 nM | 0.4 µg/mL (≈ 0.795 µM) | 2.4 µM | 1 µg/mL (≈ 1.99 µM) | 19 µg/mL (≈ 37.8 µM) | 19 µg/mL (≈ 37.8 µM) | > 50 µg/mL | 0.049 µg/mL (≈ 0.0974 µM) | – | – | – | –
4 | COc1ccccc1CCC(=O)C1=C(O)C(CCC(C)C)=C(O)C(CCC(C)C)(CCC(C)C)C1=O [Compound 4, 3,5-dihydroxy-2-(3-(2-methoxyphenyl)propanoyl)-4,6,6-triisopentylcyclohexa-2,4-dienone] | 1600 nM | 12 µg/mL (≈ 24.1 µM) | > 40 µg/mL | > 50 µg/mL | 1900 nM | 0.6 µg/mL (≈ 1.2 µM) | 4.3 µM | 3 µg/mL (≈ 6.02 µM) | 15 µg/mL (≈ 30.1 µM) | 2.7 µg/mL (≈ 5.41 µM) | > 50 µg/mL | 0.098 µg/mL (≈ 0.197 µM) | – | – | – | –
5 | COc1cccc(CCC(=O)C2=C(O)C(CCC(C)C)=C(O)C(CCC(C)C)(CCC(C)C)C2=O)c1 [Compound 5, 3,5-dihydroxy-2-(3-(3-methoxyphenyl)propanoyl)-4,6,6-triisopentylcyclohexa-2,4-dienone] | 1100 nM | 2 µg/mL (≈ 4.01 µM) | 19 µg/mL (≈ 38.1 µM) | 50 µg/mL (≈ 100 µM) | 1100 nM | 0.4 µg/mL (≈ 0.802 µM) | 3.1 µM | 2 µg/mL (≈ 4.01 µM) | 7.1 µg/mL (≈ 14.2 µM) | 3.5 µg/mL (≈ 7.02 µM) | 1.56 µg/mL (≈ 3.13 µM) | 0.049 µg/mL (≈ 0.0983 µM) | – | – | – | –
6 | COc1ccc(CCC(=O)C2=C(O)C(CCC(C)C)=C(O)C(CCC(C)C)(CCC(C)C)C2=O)cc1 [Compound 6, 3,5-dihydroxy-2-(3-(4-methoxyphenyl)propanoyl)-4,6,6-triisopentylcyclohexa-2,4-dienone] | 1200 nM | 6 µg/mL (≈ 12 µM) | 19 µg/mL (≈ 38.1 µM) | 50 µg/mL (≈ 100 µM) | 1800 nM | 0.6 µg/mL (≈ 1.2 µM) | 3.4 µM | 12 µg/mL (≈ 24.1 µM) | 15 µg/mL (≈ 30.1 µM) | 5.6 µg/mL (≈ 11.2 µM) | > 50 µg/mL | 0.098 µg/mL (≈ 0.197 µM) | – | – | – | –
7 | CC(C)CCC1=C(O)C(CCC(C)C)(CCC(C)C)C(=O)C(C(=O)CCc2ccccc2)=C1O [Compound 15, 3,5-dihydroxy-2-(3-phenylpropanoyl)-4,6,6-triisopentylcyclohexa-2,4-dienone] | 2600 nM | 4 µg/mL (≈ 8.53 µM) | 25 µg/mL (≈ 53.3 µM) | 50 µg/mL (≈ 107 µM) | 3500 nM | 0.5 µg/mL (≈ 1.07 µM) | 11 µM | 1 µg/mL (≈ 2.13 µM) | 12 µg/mL (≈ 25.6 µM) | 12 µg/mL (≈ 25.6 µM) | 0.19 µg/mL (≈ 0.405 µM) | 0.098 µg/mL (≈ 0.209 µM) | 0.5 µg/mL (≈ 1.07 µM) | 0.4 µg/mL (≈ 0.853 µM) | 1.5 µg/mL (≈ 3.2 µM) | 0.5 µg/mL (≈ 1.07 µM)
8 | CCC1=C(O)C(CC)(CC)C(=O)C(C(=O)CCc2ccccc2)=C1O [Compound 16, 3,5-dihydroxy-2-(3-phenylpropanoyl)-4,6,6-triethylcyclohexa-2,4-dienone] | > 400000 nM | 5 µg/mL (≈ 14.6 µM) | > 40 µg/mL | > 50 µg/mL | > 400000 nM | 4 µg/mL (≈ 11.7 µM) | > 400 µM | 19 µg/mL (≈ 55.5 µM) | 19 µg/mL (≈ 55.5 µM) | 15 µg/mL (≈ 43.8 µM) | – | – | 8 µg/mL (≈ 23.4 µM) | 6 µg/mL (≈ 17.5 µM) | 5 µg/mL (≈ 14.6 µM) | 6 µg/mL (≈ 17.5 µM)
9 | CCCC1=C(O)C(CCC)(CCC)C(=O)C(C(=O)CCc2ccccc2)=C1O [Compound 17, 3,5-dihydroxy-2-(3-phenylpropanoyl)-4,6,6-tripropylcyclohexa-2,4-dienone] | 140000 nM | 1.3 µg/mL (≈ 3.38 µM) | > 40 µg/mL | > 50 µg/mL | 70000 nM | 1 µg/mL (≈ 2.6 µM) | > 400 µM | 3 µg/mL (≈ 7.8 µM) | 19 µg/mL (≈ 49.4 µM) | 15 µg/mL (≈ 39 µM) | – | – | 2 µg/mL (≈ 5.2 µM) | 2 µg/mL (≈ 5.2 µM) | 1 µg/mL (≈ 2.6 µM) | 2 µg/mL (≈ 5.2 µM)
10 | CCCCC1=C(O)C(CCCC)(CCCC)C(=O)C(C(=O)CCc2ccccc2)=C1O [Compound 18, 3,5-dihydroxy-2-(3-phenylpropanoyl)-4,6,6-tributylcyclohexa-2,4-dienone] | 22000 nM | 1.2 µg/mL (≈ 2.81 µM) | 24 µg/mL (≈ 56.3 µM) | 50 µg/mL (≈ 117 µM) | 33000 nM | < 0.5 µg/mL | 80 µM | 11 µg/mL (≈ 25.8 µM) | 12 µg/mL (≈ 28.1 µM) | 9.3 µg/mL (≈ 21.8 µM) | 25 µg/mL (≈ 58.6 µM) | 0.049 µg/mL (≈ 0.115 µM) | < 0.5 µg/mL | 0.8 µg/mL (≈ 1.88 µM) | 0.6 µg/mL (≈ 1.41 µM) | 0.8 µg/mL (≈ 1.88 µM)
